Test results reported in the kinase profiling compilation of Christmann-Franck et al. (2016).

How the values were obtained:
Assay in all cases: HTRF
ABL1 (human) = ABL1 (human) (UniProt P00519)
NTRK2 (human) = NTRK2 (human) (UniProt Q16620)
FLT1 (human) = FLT1 (human) (UniProt P17948)
FLT3 (human) = FLT3 (human) (UniProt P36888)
KDR (human) = KDR (human) (UniProt P35968)
CSF1R (human) = CSF1R (human) (UniProt P07333)
BLK (human) = BLK (human) (UniProt P51451)
KIT (human) = KIT (human) (UniProt P10721)
FGFR1 (human) = FGFR1 (human) (UniProt P11362)
TYRO3 (human) = TYRO3 (human) (UniProt Q06418)
Chain of TYRO3 (human) (Q06418 whole entry, looked up): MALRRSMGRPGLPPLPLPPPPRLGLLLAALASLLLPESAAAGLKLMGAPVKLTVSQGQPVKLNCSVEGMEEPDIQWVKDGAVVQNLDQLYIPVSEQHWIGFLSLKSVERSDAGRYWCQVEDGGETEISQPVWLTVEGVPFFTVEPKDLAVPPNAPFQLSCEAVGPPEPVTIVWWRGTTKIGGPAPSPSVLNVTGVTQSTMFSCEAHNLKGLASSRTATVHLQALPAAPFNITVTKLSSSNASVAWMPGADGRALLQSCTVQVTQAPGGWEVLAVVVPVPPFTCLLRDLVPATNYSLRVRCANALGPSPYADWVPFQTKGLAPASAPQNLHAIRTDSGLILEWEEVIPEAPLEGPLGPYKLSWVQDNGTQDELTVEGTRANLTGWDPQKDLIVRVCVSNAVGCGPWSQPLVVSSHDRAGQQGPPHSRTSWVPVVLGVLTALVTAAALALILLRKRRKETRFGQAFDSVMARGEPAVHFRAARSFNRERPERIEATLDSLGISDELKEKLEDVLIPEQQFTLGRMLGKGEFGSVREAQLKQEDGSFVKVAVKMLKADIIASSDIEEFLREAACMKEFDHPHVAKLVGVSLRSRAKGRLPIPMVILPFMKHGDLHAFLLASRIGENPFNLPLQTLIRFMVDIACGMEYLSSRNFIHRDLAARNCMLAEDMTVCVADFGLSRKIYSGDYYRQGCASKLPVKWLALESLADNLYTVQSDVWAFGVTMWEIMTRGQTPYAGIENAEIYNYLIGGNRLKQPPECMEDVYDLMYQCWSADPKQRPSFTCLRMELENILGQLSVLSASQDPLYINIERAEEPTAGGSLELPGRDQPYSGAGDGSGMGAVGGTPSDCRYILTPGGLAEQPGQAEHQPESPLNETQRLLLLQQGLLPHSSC

INSR (human) = INSR (human) (UniProt P06213)
SRMS (human) = SRMS (human) (UniProt Q9H3Y6)
Chain of SRMS (human) (Q9H3Y6 whole entry, looked up): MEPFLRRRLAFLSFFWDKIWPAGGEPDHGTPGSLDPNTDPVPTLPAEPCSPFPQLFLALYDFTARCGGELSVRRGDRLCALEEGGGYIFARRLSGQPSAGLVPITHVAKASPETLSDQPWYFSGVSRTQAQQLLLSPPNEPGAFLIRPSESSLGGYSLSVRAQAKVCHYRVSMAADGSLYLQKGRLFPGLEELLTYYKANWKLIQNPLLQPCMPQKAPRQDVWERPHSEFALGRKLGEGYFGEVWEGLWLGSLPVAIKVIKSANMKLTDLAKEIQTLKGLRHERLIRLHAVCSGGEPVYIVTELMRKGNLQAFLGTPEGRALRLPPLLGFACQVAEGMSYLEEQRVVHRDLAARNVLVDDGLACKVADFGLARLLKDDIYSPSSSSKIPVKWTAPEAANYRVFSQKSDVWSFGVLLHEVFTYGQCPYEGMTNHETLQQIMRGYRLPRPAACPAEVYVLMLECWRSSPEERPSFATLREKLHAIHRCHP

FER (human) = FER (human) (UniProt P16591)
FLT4 (human) = FLT4 (human) (UniProt P35916)
BTK (human) = BTK (human) (UniProt Q06187)
FGFR3 (human) = FGFR3 (human) (UniProt P22607)
EPHA2 (human) = EPHA2 (human) (UniProt P29317)
IGF1R (human) = IGF1R (human) (UniProt P08069)
Chain of IGF1R (human) (P08069 whole entry, looked up): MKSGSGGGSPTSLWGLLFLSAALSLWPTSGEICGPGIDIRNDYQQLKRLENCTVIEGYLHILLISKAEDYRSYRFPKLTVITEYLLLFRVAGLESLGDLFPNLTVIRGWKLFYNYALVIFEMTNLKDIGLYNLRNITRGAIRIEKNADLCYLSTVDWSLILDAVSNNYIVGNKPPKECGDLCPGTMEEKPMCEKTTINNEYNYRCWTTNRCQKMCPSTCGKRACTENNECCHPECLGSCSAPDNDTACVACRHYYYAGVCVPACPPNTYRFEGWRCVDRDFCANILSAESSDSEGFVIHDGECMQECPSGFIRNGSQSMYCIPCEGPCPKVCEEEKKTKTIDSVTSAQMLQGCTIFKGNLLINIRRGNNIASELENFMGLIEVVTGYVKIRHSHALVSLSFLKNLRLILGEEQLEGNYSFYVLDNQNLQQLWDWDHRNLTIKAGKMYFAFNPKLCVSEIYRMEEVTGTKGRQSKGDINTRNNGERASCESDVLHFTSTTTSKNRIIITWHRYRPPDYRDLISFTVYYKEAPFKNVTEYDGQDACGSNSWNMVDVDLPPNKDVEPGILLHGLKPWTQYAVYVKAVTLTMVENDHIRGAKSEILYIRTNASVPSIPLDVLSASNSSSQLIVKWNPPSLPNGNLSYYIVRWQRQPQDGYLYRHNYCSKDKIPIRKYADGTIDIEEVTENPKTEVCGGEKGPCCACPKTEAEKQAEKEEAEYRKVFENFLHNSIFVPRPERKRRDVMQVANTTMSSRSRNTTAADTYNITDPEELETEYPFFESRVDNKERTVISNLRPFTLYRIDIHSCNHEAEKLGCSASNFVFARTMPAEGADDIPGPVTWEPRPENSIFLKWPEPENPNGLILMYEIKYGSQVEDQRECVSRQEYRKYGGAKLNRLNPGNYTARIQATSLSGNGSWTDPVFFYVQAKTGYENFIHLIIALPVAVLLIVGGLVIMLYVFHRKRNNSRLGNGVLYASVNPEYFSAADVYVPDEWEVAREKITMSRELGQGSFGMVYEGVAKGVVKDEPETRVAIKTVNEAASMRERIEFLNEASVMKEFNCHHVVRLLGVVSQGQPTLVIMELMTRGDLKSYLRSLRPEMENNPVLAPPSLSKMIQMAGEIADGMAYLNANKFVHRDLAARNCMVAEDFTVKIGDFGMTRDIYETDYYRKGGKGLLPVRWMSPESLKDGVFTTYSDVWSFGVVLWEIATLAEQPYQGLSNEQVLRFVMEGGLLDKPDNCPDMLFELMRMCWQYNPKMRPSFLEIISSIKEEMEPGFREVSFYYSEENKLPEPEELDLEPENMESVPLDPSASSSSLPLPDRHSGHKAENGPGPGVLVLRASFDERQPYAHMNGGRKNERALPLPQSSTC

MATK (human) = MATK (human) (UniProt P42679)
Chain of MATK (human) (P42679 whole entry, looked up): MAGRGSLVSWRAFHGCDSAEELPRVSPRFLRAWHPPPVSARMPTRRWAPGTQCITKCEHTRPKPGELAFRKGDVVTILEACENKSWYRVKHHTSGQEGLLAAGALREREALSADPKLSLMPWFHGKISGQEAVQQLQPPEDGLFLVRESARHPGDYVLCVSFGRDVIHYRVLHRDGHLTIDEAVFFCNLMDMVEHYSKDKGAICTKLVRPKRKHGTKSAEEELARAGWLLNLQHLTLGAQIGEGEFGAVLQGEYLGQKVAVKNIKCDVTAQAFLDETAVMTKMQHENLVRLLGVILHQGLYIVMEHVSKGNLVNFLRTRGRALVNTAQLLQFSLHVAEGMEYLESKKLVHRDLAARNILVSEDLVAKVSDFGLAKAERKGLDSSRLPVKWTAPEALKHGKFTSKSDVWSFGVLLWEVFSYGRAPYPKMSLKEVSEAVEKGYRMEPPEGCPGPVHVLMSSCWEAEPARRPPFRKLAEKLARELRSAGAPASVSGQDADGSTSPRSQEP

FRK (human) = FRK (human) (UniProt P42685)
FYN (human) = FYN (human) (UniProt P06241)
MET (human) = MET (human) (UniProt P08581)
NTRK1 (human) = NTRK1 (human) (UniProt P04629)
ERBB4 (human) = ERBB4 (human) (UniProt Q15303)
LCK (human) = LCK (human) (UniProt P06239)
TYK2 JH1 JH2 (human) = TYK2 JH1 JH2 (human) (UniProt P29597)

Chain of KDR (human) (P35968 whole entry, looked up): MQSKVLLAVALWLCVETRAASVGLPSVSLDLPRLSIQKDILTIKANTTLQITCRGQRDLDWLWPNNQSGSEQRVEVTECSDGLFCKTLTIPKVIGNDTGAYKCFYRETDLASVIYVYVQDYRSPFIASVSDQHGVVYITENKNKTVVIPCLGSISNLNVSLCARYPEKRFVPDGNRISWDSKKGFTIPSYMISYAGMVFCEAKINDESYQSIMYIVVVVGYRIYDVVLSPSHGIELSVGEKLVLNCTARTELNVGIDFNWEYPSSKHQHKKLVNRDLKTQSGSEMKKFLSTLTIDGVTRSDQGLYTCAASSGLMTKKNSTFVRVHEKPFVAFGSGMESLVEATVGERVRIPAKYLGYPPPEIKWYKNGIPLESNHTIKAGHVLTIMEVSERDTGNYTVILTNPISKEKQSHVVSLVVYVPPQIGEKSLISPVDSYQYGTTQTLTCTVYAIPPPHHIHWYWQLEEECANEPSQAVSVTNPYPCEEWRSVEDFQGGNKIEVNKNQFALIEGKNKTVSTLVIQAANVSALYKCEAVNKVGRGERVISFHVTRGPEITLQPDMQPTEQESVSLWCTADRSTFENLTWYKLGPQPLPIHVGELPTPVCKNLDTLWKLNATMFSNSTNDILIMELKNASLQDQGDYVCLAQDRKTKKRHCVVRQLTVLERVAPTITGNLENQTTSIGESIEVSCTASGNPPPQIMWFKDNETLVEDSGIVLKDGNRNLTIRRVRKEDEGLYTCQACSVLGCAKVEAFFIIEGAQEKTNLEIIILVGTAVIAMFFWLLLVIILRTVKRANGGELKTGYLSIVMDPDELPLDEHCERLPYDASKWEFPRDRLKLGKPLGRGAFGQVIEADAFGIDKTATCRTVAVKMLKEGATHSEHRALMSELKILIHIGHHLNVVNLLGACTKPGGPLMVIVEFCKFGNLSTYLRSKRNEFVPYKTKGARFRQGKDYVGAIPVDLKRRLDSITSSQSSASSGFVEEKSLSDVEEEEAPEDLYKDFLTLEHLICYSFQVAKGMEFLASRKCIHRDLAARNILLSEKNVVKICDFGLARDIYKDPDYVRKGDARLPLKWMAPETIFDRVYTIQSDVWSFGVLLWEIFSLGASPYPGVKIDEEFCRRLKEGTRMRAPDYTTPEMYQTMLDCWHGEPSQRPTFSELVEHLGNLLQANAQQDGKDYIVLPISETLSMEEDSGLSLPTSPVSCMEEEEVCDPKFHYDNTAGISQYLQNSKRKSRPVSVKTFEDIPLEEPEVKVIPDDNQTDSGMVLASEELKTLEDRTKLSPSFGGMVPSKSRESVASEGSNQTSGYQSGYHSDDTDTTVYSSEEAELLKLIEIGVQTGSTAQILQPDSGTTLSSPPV

`O=C1c2ccccc2-c2n[nH]c3cccc1c23` was tested, and the Ki (ABL1 (human)) was > 631 nM, the Ki (NTRK2 (human)) was 794 nM and the Ki (FLT1 (human)) was 200 nM. The Ki (FLT3 (human)) was 50.1 nM, the Ki (KDR (human)) was 631 nM and the Ki (CSF1R (human)) was 126 nM. For the same compound, the Ki (BLK (human)) was 200 nM, the Ki (KIT (human)) was 1260 nM and the Ki (FGFR1 (human)) was 251 nM. For the same compound, the Ki (TYRO3 (human)) was 1000 nM, the Ki (INSR (human)) was 501 nM and the Ki (SRMS (human)) was > 1580 nM. The Ki (FER (human)) was 50.1 nM, the Ki (FLT4 (human)) was 15.8 nM and the Ki (BTK (human)) was > 1260 nM. For the same compound, the Ki (FGFR3 (human)) was 158 nM, the Ki (EPHA2 (human)) was > 3160 nM and the Ki (IGF1R (human)) was > 2000 nM. For the same compound, the Ki (MATK (human)) was 501 nM, the Ki (FRK (human)) was 63.1 nM and the Ki (FYN (human)) was > 794 nM. The Ki (MET (human)) was 501 nM, the Ki (NTRK1 (human)) was 1260 nM and the Ki (ERBB4 (human)) was 3980 nM. For the same compound, the Ki (LCK (human)) was 2000 nM and the Ki (TYK2 JH1 JH2 (human)) was 1260 nM.
